# Experimental data: ChEMBL document CHEMBL6074678, “Selectively Antagonizing the NOD1-Mediated Inflammatory Signaling Pathway Mitigates the Gastric Inflammation Induced by Helicobacter pylori Infection” (J Med Chem, 2024)
# Assays:
# [1] = target: T1, Nucleotide-binding oligomerization domain-containing protein 1 (Mus musculus) (UniProt Q8BHB0); assay: Antagonist activity at mouse NOD1 expressed in HEK-Blue cells assessed as decrease in SEAP secretion at 5 uM incubated for 3 hrs followed by C12-iE-DAP stimulation for 20 hrs by spectrophotometry relative to control; assay type: cell-based
# T1 sequence (whole entry): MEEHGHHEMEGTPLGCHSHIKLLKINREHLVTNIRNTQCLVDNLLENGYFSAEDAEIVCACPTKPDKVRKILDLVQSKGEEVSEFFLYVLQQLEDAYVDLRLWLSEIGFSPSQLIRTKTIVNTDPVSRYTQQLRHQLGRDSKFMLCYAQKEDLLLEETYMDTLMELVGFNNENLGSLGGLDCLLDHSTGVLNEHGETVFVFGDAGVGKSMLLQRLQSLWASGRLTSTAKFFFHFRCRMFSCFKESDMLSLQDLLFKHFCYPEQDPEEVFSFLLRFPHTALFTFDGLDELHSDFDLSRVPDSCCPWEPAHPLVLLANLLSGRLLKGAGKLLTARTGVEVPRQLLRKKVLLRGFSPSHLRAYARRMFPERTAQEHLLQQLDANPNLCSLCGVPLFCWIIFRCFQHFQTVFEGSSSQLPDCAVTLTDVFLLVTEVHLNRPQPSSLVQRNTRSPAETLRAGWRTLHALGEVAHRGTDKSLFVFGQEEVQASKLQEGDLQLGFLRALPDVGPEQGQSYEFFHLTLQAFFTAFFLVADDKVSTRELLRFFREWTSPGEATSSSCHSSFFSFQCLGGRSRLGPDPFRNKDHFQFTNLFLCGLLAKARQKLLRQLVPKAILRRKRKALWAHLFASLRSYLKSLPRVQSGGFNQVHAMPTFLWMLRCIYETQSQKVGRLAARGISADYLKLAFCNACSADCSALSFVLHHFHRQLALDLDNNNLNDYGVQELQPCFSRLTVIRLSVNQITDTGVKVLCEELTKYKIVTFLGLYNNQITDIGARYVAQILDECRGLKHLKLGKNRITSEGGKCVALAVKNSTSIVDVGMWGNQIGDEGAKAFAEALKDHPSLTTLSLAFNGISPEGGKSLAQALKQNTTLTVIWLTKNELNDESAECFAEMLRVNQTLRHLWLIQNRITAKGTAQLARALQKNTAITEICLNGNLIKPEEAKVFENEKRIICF
# [2] = target: T1, Nucleotide-binding oligomerization domain-containing protein 1 (Mus musculus); assay: Antagonist activity at mouse NOD1 expressed in HEK-Blue cells assessed as decrease in SEAP secretion at 1 uM incubated for 3 hrs followed by C12-iE-DAP stimulation for 20 hrs by spectrophotometry relative to control; assay type: cell-based
# [3] = target: T2, Nucleotide-binding oligomerization domain-containing protein 1 (Mus musculus, UniProt Q8BHB0); assay: Antagonist activity at mouse NOD1 expressed in HEK-Blue cells assessed as decrease in SEAP secretion incubated for 3 hrs followed by C12-iE-DAP stimulation for 20 hrs by spectrophotometry; assay type: cell-based, HEK-Blue mNOD1
# T2 sequence (Q8BHB0 whole entry): T1 sequence (whole entry)
# [4] = target: T3, Nucleotide-binding oligomerization domain-containing protein 1 (Homo sapiens, UniProt Q9Y239); assay: Antagonist activity at human NOD1 expressed in HEK-Blue cells assessed as decrease in SEAP secretion incubated for 3 hrs followed by C12-iE-DAP stimulation for 20 hrs by spectrophotometry; assay type: cell-based, HEK-Blue hNOD1
# T3 sequence (Q9Y239 whole entry): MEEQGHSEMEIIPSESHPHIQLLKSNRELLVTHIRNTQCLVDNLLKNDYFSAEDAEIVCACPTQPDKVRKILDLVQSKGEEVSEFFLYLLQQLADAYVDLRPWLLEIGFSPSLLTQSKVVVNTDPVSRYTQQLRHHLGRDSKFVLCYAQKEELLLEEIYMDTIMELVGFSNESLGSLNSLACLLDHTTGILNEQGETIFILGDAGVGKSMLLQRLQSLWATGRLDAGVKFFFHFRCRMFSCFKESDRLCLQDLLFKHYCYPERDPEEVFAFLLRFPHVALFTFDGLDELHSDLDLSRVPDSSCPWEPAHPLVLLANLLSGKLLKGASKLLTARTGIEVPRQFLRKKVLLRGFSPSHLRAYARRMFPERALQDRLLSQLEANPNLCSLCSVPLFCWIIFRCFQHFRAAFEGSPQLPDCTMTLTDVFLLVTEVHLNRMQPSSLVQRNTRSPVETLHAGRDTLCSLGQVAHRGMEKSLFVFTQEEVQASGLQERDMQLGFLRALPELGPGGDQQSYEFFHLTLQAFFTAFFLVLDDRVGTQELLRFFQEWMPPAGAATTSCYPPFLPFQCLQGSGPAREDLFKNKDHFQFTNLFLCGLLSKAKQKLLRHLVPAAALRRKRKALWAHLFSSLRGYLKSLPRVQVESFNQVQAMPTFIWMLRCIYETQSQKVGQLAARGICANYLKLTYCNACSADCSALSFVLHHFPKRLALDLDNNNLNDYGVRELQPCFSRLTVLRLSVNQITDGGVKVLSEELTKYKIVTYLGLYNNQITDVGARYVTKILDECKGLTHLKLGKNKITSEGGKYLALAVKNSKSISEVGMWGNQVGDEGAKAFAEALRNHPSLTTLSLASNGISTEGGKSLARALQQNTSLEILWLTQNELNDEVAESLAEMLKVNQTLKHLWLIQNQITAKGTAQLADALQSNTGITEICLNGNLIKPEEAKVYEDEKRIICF
# [5] = HEK-Blue mNOD1, filed as antagonist, time 23.0 hrs
SMILES,"inhibition ([1]; HEK-Blue mNOD1, time 23.0 hrs) [%]","inhibition [2, 5] [%]",IC50 [3] [nM],IC50 [4] [nM],further results
CC(=O)Nc1ccc(Cl)c(NS(=O)(=O)c2ccccc2F)c1,< 10,–,–,–,–
N#Cc1ccccc1S(=O)(=O)Nc1cc(-n2c(Cl)nc3cnc(Cl)cc3c2=O)ccc1Cl,–,86.3,121,1.2,–
O=c1c2ccncc2nc(Cl)n1-c1ccc(Cl)c(NS(=O)(=O)c2ccc(F)cc2F)c1,–,80.5,193,–,–
O=c1c2cc(Cl)ccc2nc(C(F)(F)F)n1-c1ccc(Cl)c(NS(=O)(=O)c2ccccc2F)c1,–,–,5900,68,"inhibition [1, 5]: 73.2%"
O=c1c2cc(F)c(F)cc2nc(Cl)n1-c1ccc(Cl)c(NS(=O)(=O)c2ccccc2F)c1,–,55.3,1300,–,–
Cc1nc2ccc(Cl)cc2c(=O)n1NS(=O)(=O)c1ccc(Cl)cc1,< 10,–,–,–,–
O=c1c2cc(Cl)ncc2nc(Cl)n1-c1ccc(Cl)c(NS(=O)(=O)N2CCCCC2)c1,–,–,–,126,"inhibition ([2]; HEK-Blue mNOD1, time 23.0 hrs): 28.7%"
O=c1c2cc(OC(F)(F)F)ccc2nc(Cl)n1-c1ccc(Cl)c(NS(=O)(=O)c2c(F)cccc2F)c1,–,–,2650,–,"inhibition ([2]; HEK-Blue mNOD1, time 23.0 hrs): 36.5%"
O=c1c2ccncc2nc(C(F)(F)F)n1-c1ccc(Cl)c(NS(=O)(=O)c2ccccc2F)c1,–,–,–,–,"inhibition ([2]; HEK-Blue mNOD1, time 23.0 hrs): 7.7%"
O=c1c2cc(Cl)ncc2nc(Cl)n1-c1ccc(Cl)c(NS(=O)(=O)c2ccc(Cl)s2)c1,–,76.5,300,–,–
O=c1c2cc([N+](=O)[O-])ccc2nc(Cl)n1-c1ccc(Cl)c(NS(=O)(=O)c2ccccc2F)c1,–,52.1,860,9.1,–
O=c1c2nc(Cl)cnc2nc(Cl)n1-c1ccc(Cl)c(NS(=O)(=O)c2ccccc2F)c1,–,–,1230,–,–
N#Cc1ccc2nc(Cl)n(-c3ccc(Cl)c(NS(=O)(=O)c4ccccc4F)c3)c(=O)c2c1,–,83.6,117,9.7,–
N[C@@H](CCC(=O)N[C@@H](CSc1nc2cnccc2c(=O)n1-c1ccc(Cl)c(NS(=O)(=O)c2ccccc2F)c1)C(=O)NCC(=O)O)C(=O)O,–,–,–,–,"inhibition ([2]; HEK-Blue mNOD1, time 23.0 hrs): -1%"
COc1ccc2nc(Cl)n(-c3ccc(Cl)c(NS(=O)(=O)c4ccccc4F)c3)c(=O)c2c1,–,–,–,–,"inhibition ([2]; HEK-Blue mNOD1, time 23.0 hrs): < 10%"
O=c1c2ccncc2nc(Cl)n1-c1ccc(Cl)c(NS(=O)(=O)c2cc(F)c(F)cc2F)c1,–,81.8,159,7.5,–
Nc1nc2ccc(Cl)cc2c(=O)n1-c1ccc(Cl)c(NS(=O)(=O)c2ccccc2F)c1,27.3,–,–,44,–
Cc1nc2ccc(Cl)cc2c(=O)n1-c1ccc(Cl)c(S(=O)(=O)Nc2ccccc2F)c1,21.1,–,–,–,–
Cc1nc2ccc(Cl)cc2c(=O)n1-c1ccc(Cl)c(N2Cc3ccccc3S2(=O)=O)c1,14.5,–,–,11200,–
O=c1c2ccncc2nc(Cl)n1-c1ccc(Cl)c(NS(=O)(=O)c2cc(F)ccc2F)c1,–,81.8,165,8.4,–
NC(=O)c1nc2ccc(Cl)cc2c(=O)n1-c1ccc(Cl)c(NS(=O)(=O)c2ccccc2F)c1,–,–,–,–,"inhibition [1, 5]: 48.2%"
Cc1nc2ccc(Cl)cc2c(=O)n1-c1ccc(Cl)c(N)c1,< 10,–,–,–,–
O=c1c2cc(Br)ccc2nc(Cl)n1-c1ccc(Cl)c(NS(=O)(=O)c2ccccc2F)c1,–,40.5,–,18,–
O=c1c2ccncc2nc(Cl)n1-c1ccc(Cl)c(NS(=O)(=O)c2ccc([N+](=O)[O-])cc2F)c1,–,–,133,–,–
CS(=O)(=O)c1ccc2nc(Cl)n(-c3ccc(Cl)c(NS(=O)(=O)c4ccccc4F)c3)c(=O)c2c1,–,88.9,110,4.4,–

SMILES,"inhibition ([1]; HEK-Blue mNOD1, time 23.0 hrs) [%]","inhibition [2, 5] [%]",IC50 [3] [nM],IC50 [4] [nM],further results
O=c1c2cc(Cl)ccc2nc(SCCOc2ccc(F)cc2)n1-c1ccc(Cl)c(NS(=O)(=O)c2ccccc2F)c1,< 10,–,–,746,–
CCOC(=O)c1nc2ccc(Cl)cc2c(=O)n1-c1ccc(Cl)c(NS(=O)(=O)c2ccccc2F)c1,11.4,–,–,–,–
CC(C)NC(=O)CSc1nc2ccc(Cl)cc2c(=O)n1-c1ccc(Cl)c(NS(=O)(=O)c2ccccc2F)c1,< 10,–,–,25,–
Cc1nc2ccc(Cl)cc2c(=O)n1CCCNS(=O)(=O)c1ccccc1F,< 10,–,–,–,–
Cc1nc2ccc(Cl)cc2c(=O)n1-c1ccc(Cl)c(C(=O)O)c1,< 10,–,–,–,–
O=c1c2cc(Cl)ccc2nc(NCCCN2CCOCC2)n1-c1ccc(Cl)c(NS(=O)(=O)c2ccccc2F)c1,–,–,–,32,"inhibition [1, 5]: 46.5%"
C=CS(=O)(=O)Nc1cc(-n2c(Cl)nc3cnc(Cl)cc3c2=O)ccc1Cl,–,70.2,1150,–,–
Cn1cc(S(=O)(=O)Nc2cc(-n3c(Cl)nc4cnc(Cl)cc4c3=O)ccc2Cl)cn1,–,77.6,267,3.1,–
COc1cc2nc(Cl)n(-c3ccc(Cl)c(NS(=O)(=O)c4ccccc4F)c3)c(=O)c2cc1Cl,–,–,–,–,"inhibition ([2]; HEK-Blue mNOD1, time 23.0 hrs): 39.3%"
Nc1ccc(Cl)cc1C(=O)Nc1ccc(Cl)c(NS(=O)(=O)c2ccccc2F)c1,32.9,–,–,–,–
O=c1c2cc(C(F)(F)F)ccc2nc(Cl)n1-c1ccc(Cl)c(NS(=O)(=O)c2c(F)cccc2F)c1,–,65.3,404,–,–
O=c1c2cc(Cl)ncc2nc(Cl)n1-c1ccc(Cl)c(NS(=O)(=O)c2c(F)cccc2F)c1,–,87.5,67,1.3,–
O=c1c2cc(Cl)ncc2nc(Cl)n1-c1ccc(Cl)c(NS(=O)(=O)c2cccnc2)c1,–,–,381,–,–
Cc1noc(C)c1S(=O)(=O)Nc1cc(-n2c(Cl)nc3cnc(Cl)cc3c2=O)ccc1Cl,–,–,559,–,–
O=c1c2cc(Cl)ncc2nc(Cl)n1-c1ccc(Cl)c(NS(=O)(=O)c2ccc3c(c2)CCO3)c1,–,–,673,–,–
O=c1c2cc(-c3cccc(Cl)c3)ccc2nc(Cl)n1-c1ccc(Cl)c(NS(=O)(=O)c2ccccc2F)c1,–,–,–,–,"inhibition ([2]; HEK-Blue mNOD1, time 23.0 hrs): 15.6%"
Cc1nc2ccc(Cl)cc2c(=O)n1-c1ccc(Cl)c(NC(=O)c2ccccc2F)c1,< 10,–,–,–,–
CS(=O)(=O)c1ccc2nc(Cl)n(-c3ccc(Cl)c(NS(=O)(=O)c4ccc([N+](=O)[O-])cc4F)c3)c(=O)c2c1,–,82.3,199,–,–
O=c1c2ccncc2nc(C(F)F)n1-c1ccc(Cl)c(NS(=O)(=O)c2ccccc2F)c1,–,–,–,–,"inhibition ([2]; HEK-Blue mNOD1, time 23.0 hrs): 19.1%"
O=c1c2cc(C(F)(F)F)ccc2nc(Cl)n1-c1ccc(Cl)c(NS(=O)(=O)c2ccccc2F)c1,–,–,624,–,–
O=c1c2cc(Cl)ncc2nc(Cl)n1-c1ccc(Cl)c(NS(=O)(=O)c2ccc3ncsc3c2)c1,–,85.7,132,–,–
Cc1nc2ccc(Cl)cc2c(=O)n1-c1ccc(Cl)c(C(=O)N2Cc3ccccc3S2(=O)=O)c1,< 10,–,–,–,–
O=c1c2ccccc2nc(Cl)n1-c1ccc(Cl)c(NS(=O)(=O)c2ccccc2F)c1,–,–,–,–,"inhibition ([2]; HEK-Blue mNOD1, time 23.0 hrs): < 10%"
O=C(CSc1nc2ccc(Cl)cc2c(=O)n1-c1ccc(Cl)c(NS(=O)(=O)c2ccccc2F)c1)Nc1ccccc1,< 10,–,–,44,–
O=c1c2cc(Cl)ncc2nc(Cl)n1-c1ccc(Cl)c(NS(=O)(=O)c2ccccc2Cl)c1,–,–,285,–,–
